This note sets out measurements from patent US10561650B2, “Method for treating a protozoal infection” (priority 2013, dated 2020).

For the assay, the system named is L. donovani promastigotes. The assay can be described thus: Cultured L. donovani promastigotes exposed to drugs alone or in two-drug combinations. The assay is classed as cell-based. The settings on record: typical serum concentrations (e.g. 5 ug/ml); DMEM culture medium; after 144 hours in culture.

For `CCC(C)n1ncn(-c2ccc(N3CCN(c4ccc(OCC5COC(Cn6cncn6)(c6ccc(Cl)cc6Cl)O5)cc4)CC3)cc2)c1=O` (centres unmarked) [itraconazole], the “reduction of promastigotes compared to control” value was ~50%.
Next, `Cc1ncc([N+](=O)[O-])n1CCO` [metronidazole]: ~50%.
